# Patent publication US11654178B2, “Cyclic prosaposin peptides and uses thereof” (CHILDREN'S MEDICAL CENTER CORPORATION, priority 2014, dated 2023)
# Where a SMILES comes first, the peptide text is derived from it. Where no end group is shown, it is not given here. [ ]: non-standard residue; d: D form.
# How the values were obtained:
# [1] = test system: primary human ovarian cancer cell lines; assay: Cell number (Wst-1) and apoptosis (Annexin V/PI FACS) of patient derived ovarian cancer cell lines; format: cell-based
# Text: FIGS. 12A-12E show stimulation of Tsp-1 and its effects on ovarian cancer cell growth and survival. FIG. 12A is a western blot of Tsp-1 and β-actin in WI-38 lung fibroblasts that were untreated (−) or treated with native DWLP (SEQ ID NO: 6), L-amino acid, prosaposin peptide (WT), dWIP (SEQ ID NO: 5, lower case d and 1 indicate D-amino acids) prosaposin peptide (d1.3) or DwLp (SEQ ID NO: 7, lower case w and p indicate D-amino acids) prosaposin peptide (d2,4): […] is a western blot of Tsp-1 and β-actin in mouse lung tissue harvested from mice treated with metastatic prostate cancer cell conditioned media alone (−) or in combination with DWLP (SEQ ID NO: 6) prosaposin peptide (WT) or dWIP (SEQ ID NO: 5, lower case d and l indicate D-amino acids) prosaposin peptide (d1,3 peptide) at doses of 10 and 30 mg/kg/day for 3 days; FIG. 12C is a western blot of CD36 and β-actin in 8 patient derived ovarian cancer cell lines; FIG. 12D is a plot of cell number as measured by Wst-1 assay of a patient derived ovarian cancer cell line treated with 1 μM recombinant human Tsp-1 (rhTsp-1) for 24, 48 and 72 hours; and FIG. 12E is a FACS analysis of Annexin V and PI of a patient derived ovarian cancer cell line treated with 1 μM recombinant human Tsp-1 (rhTsp-1) for 48 hours.
# In order to test the efficacy of the d-amino acid Psap peptide, a suitable tumor model that would represent a potential clinical application for the peptide, was determined. Given that Psap, and the peptide derived from it, stimulates Tsp-1 in bone marrow derived cells that are recruited to sites of metastasis, a specific type of cancer that expressed the receptor for Tsp-1 that mediates its pro-apoptotic activity, CD36 was sought to be identified (5). It has been reported that serous ovarian epithelial cells and human ovarian cancer cells express CD36 (11-13). […] Three of these cell lines were treated with recombinant human Tsp-1 for up to 72 hours and determined its effect on cell number and apoptosis.
# thrombospondin-1 (Tsp-1) = assay: Tsp-1 activation in cultured cells by Western blot; format: cell-based
# Method: Cells were cultured and contacted with 4 micrograms/mL or 10 micrograms/mL of each peptide and the level of thrombospondin-1 (Tsp-1) activation was measured by Western blot. Tsp-1 has been previously shown to be activated by Saposin A protein.
# [2] = Stability in human plasma at 37° C., read out as Tsp-1 stimulation in WI-38 fibroblasts (ELISA); format: in vitro ADME; conditions: 24 hours
# Method: The cyclic peptide DWLPK (SEQ ID NO: 1) was also tested for stability in human plasma compared to the linear peptide dWIP (SEQ ID NO: 5). Each peptide was incubated in human plasma at 37 degrees Celsius, for 2, 4, 8, or 24 hours.
# Cyclization also has the effect of increasing the stability of peptides by forcing them into a conformation that is not recognized by most naturally occurring proteases (9, 10, 14-18). The stability of the cyclic peptide to the linear d-amino acid peptide in human plasma was compared.
# DF14 cells = assay: PDX model of established ovarian cancer metastases, d-amino acid Psap peptide; format: in vivo; set-up: mice that died from adverse side effects / decrease of total body weight: dose or concentration left out as unconfirmed; conditions: for body weight: 40 mg/kg QD, FIG. 16
# Text: 75 percent of ovarian cancer patients already have disseminated disease at the time of first diagnosis (E. Lengyel, Ovarian cancer development and metastasis. Am J Pathol 177, 1053-1064 (2010)). For these patients inhibiting metastasis would have limited therapeutic benefit. Rather, these patients require a therapeutic agent that can regress or, at the very least, stabilize existing metastases. Whether the d-amino acid Psap peptide could have therapeutic efficacy in a model of established metastatic dissemination was investigated. 1×10^6 DF14 cells, expressing firefly luciferase, were injected into the peritoneal cavity of SCID mice to mimic the route of dissemination of human ovarian cancer. The growth of metastatic colonies in the mice in real time were monitored via relative luciferase intensity and when the average intensity of the luciferase signal was 0.5-1×10^8 RLU, treatment with vehicle (saline), the d-amino acid peptide (40 mg/kg QD), or cisplatin (4 mg/kg QOD) was started. […] However, during those 20 days half of the cisplatin treated mice died from adverse side effects of the drug as defined by total body weight, which decreased by 40% (FIG. 13C). Moreover, after 20 days the tumors in the group of cisplatin treated mice that survived began to grow, despite continued treatment with cisplatin, and all the remaining mice died within 10 days (FIG. 13A).
# The livers and spleens of the Psap peptide treated mice were examined histologically (H&E) to determine whether there were any micrometastases.
# Metastases in the peritoneal cavity recruited Cd11b^+/Gr1^+ bone marrow derived cells, analogous to lung metastases was investigated (3). […] The fluid was FACS sorted from these mice to assess the population of Cd11^+/Gr1^+ bone marrow derived cells. […] Based on these findings it was concluded that the Psap peptide was able to dramatically regress established metastases to the point where no detectable lesions could be found.
# Tsp-1 = Tsp-1 expression in lungs of mice pretreated with PC3M-LN4 conditioned media (western blot); format: in vivo, C57BL6/J mice; conditions: dose of 10 mg/kg, 3 days, LN4 CM
# Method: The activity of the 1,3-d-amino acid Psap peptide and the native Psap peptide were tested in vivo. The peptides were systematically administered to C57BL6/J mice that were pretreated with conditioned media (CM) from PC3M-LN4 (LN4) cells, which previously mimicked the systemic properties of metastatic tumors by repressing the expression of Tsp-1 in the lungs of mice (3, 4). After 3 days of treatment with LN4 CM alone or in combination with two different doses (10 mg/kg/day and 30 mg/kg/day) of d- and 1-amino acid peptides (independently) protein pools were prepared from the harvested lungs of each treatment group. The level of Tsp-1 expression in the lungs of these mice were assessed by western blot analysis. It was observed that the 1,3-d-amino acid peptide stimulated Tsp-1 3-fold greater than the native peptide (FIG. 12B). […] Based on the observation that the in vitro activity of the two peptides was virtually identical, it was concluded that the difference in activity in vivo was due to a difference in stability.
molecule,measurement,setting,value
RhTsp-1: recombinant human Tsp-1 (thrombospondin-1),apoptotic cells (Anexin V positivity) by FACS,"[1]; 1 μM, 48 hours, FIG. 12E",30-60%
same,"decrease in total cell number, of the original number of cells plated","[1]; three cell lines, up to 72 hours, 1 μM, FIG. 12D",up to 50%
linear DWGPK: linear version of peptide DWGPK (SEQ ID NO: 2) (not fully specified) [reference compound],"effectiveness at increasing Tsp-1, linear versions of the peptides",thrombospondin-1 (Tsp-1); similar study with linear versions,more effective than linear DWLPK
"CC(C)C[C@@H](NC(=O)[C@H](Cc1c[nH]c2ccccc12)NC(=O)[C@H](N)CC(=O)O)C(=O)N1CCC[C@H]1C(=O)O [linear dWIP, reference compound] (H-[dD]W[dL]P-OH; N-terminus and C-terminus assumed)",ability to activate Tsp-1 after incubation in human plasma,"[2]; 37 degrees Celsius, FIG. 3",significantly less activity
same,Tsp-1 stimulation after incubation in human plasma,"[2]; 37° C., ELISA",no longer able to stimulate Tsp-1
same,body weight,DF14 cells; listed as Psap peptide,no loss of body weight
same,body weight,DF14 cells; listed as psap peptide,no effect on body weight
CC(C)C[C@@H]1NC(=O)[C@H](Cc2c[nH]c3ccccc23)NC(=O)[C@@H](CC(=O)O)NC(=O)[C@H](CCCCN)NC(=O)[C@@H]2CCCN2C1=O [cyclic dWLPK] (cyclo(K[dD]WLP)),effectiveness at increasing the level of Tsp-1,"thrombospondin-1 (Tsp-1); cyclic peptides, 4 micrograms/mL or 10 micrograms/mL, Western blot, FIG. 2",least effective
"native peptide: native DWLP (SEQ ID NO: 6), L-amino acid, prosaposin peptide (WT)",Tsp-1 stimulation in lungs,Tsp-1,did not significantly stimulate Tsp-1
N.N.[Cl][Pt][Cl] [cisplatin],necrosis (low Anexin V and high PI staining),"[1]; FIG. 12E, compared with Tsp-1 treatment",much greater percentage of ovarian cancer cells underwent necrosis
same,time until all remaining mice died,DF14 cells; after day 20 of treatment,≤ 10 days
same,decrease of total body weight,DF14 cells; during first 20 days,40%
same,mice that died from adverse side effects,DF14 cells; during first 20 days,half
same,tumor volume as determined by luciferase intensity,"DF14 cells; first 20 days of treatment, peptide 40 mg/kg QD, cisplatin 4 mg/kg QOD",able to regress tumor volume
same,tumor growth after 20 days despite continued treatment,"DF14 cells; surviving mice, cisplatin 4 mg/kg QOD",began to grow
